≈ marks a conversion by molar mass, not a printed value.
Key:
Format in all cases: functional
[1] = system: Enterococcus faecium; test: Antibacterial activity against Enterococcus faecium ATCC 49452 at 10 % serum in mice; settings: ATCC 49452, Serum
[2] = system: Enterococcus faecalis; test: Antibacterial activity against Enterococcus faecalis ATCC 6569 at 10 % serum in mice
[3] = system: Enterococcus faecalis; test: Antibacterial activity against Enterococcus faecalis ATCC 6569 at 0 % serum in mice
[4] = system: Enterococcus faecium; test: Antibacterial activity against Enterococcus faecium ATCC 49452 at 0 % serum in mice
[5] = system: Staphylococcus aureus; test: Antibacterial activity against methicillin-resistant staphylococcus aureus ATCC 43300 at 0 % serum in mice
[6] = system: Staphylococcus aureus; test: Antibacterial activity against methicillin-resistant staphylococcus aureus ATCC 43300 at 10 % serum in mice

## CCCCCCCCCC(=O)N[C@@H](Cc1c[nH]c2ccccc12)C(=O)N[C@H](CC(N)=O)C(=O)N[C@@H](CC(=O)O)C(=O)N[C@@H]1C(=O)NCC(=O)N[C@@H](CCCN)C(=O)N[C@@H](CC(=O)O)C(=O)N[C@H](C)C(=O)N[C@@H](CC(=O)O)C(=O)NCC(=O)N[C@H](CO)C(=O)N[C@@H]([C@H](C)CC(=O)O)C(=O)N[C@@H](CC(=O)c2ccccc2N)C(=O)O[C@@H]1C
[1]
  MIC: 1.56 µg/mL (≈ 0.963 µM)
[2]
  MIC: 3.13 µg/mL (≈ 1.93 µM)
[3]
  MIC: 1.56 µg/mL (≈ 0.963 µM)
[4]
  MIC: 1.56 µg/mL (≈ 0.963 µM)
[5]
  MIC: 0.78 µg/mL (≈ 0.481 µM)
[6]
  MIC: 0.78 µg/mL (≈ 0.481 µM)

Source: ChEMBL document CHEMBL1136464, “Array synthesis of novel lipodepsipeptide” (Bioorg Med Chem Lett, 2003)
